According to ChEMBL document CHEMBL3046389, “Synthesis and biological evaluation of novel hydroquinone dimethyl ethers as potential anticancer and antimicrobial agents” (2013):
In brackets after ≈: the same amount, converted by molar mass.

Tests used:
Format in all cases: functional
RPMI-8226 = test: Anticancer activity against Homo sapiens (human) RPMI8226 cells after 48 hr by SRB assay; details: RPMI-8226, 48 h; for CC50: read-out: LC50 (the source's name)
HCT-116 = test: Growth inhibition of Homo sapiens (human) HCT116 cells at 10 uM after 48 hr by SRB assay; details: HCT-116, 48 h, read-out: GI
HCC 2998 [1] = test: Growth inhibition of Homo sapiens (human) HCC2998 cells at 10 uM after 48 hr by SRB assay; details: HCC 2998, 48 h, read-out: GI
CCRF-CEM [2] = test: Anticancer activity against Homo sapiens (human) CCRF-CEM cells after 48 hr by SRB assay; details: for CC50: read-out: LC50 (the source's name)
Candida albicans = test: Antimicrobial activity against Candida albicans DSM 70014 after 48 hr by two-fold serial broth dilution method; details: DSM 70014, 48 h
U-251 = test: Anticancer activity against Homo sapiens (human) U251 cells after 48 hr by SRB assay; details: U-251, 48 h; for CC50: read-out: LC50 (the source's name)
SNB-75 = test: Anticancer activity against Homo sapiens (human) SNB75 cells after 48 hr by SRB assay; details: SNB-75, 48 h; for CC50: read-out: LC50 (the source's name)
SNB-19 [3] = test: Anticancer activity against Homo sapiens (human) SNB19 cells after 48 hr by SRB assay; details: SNB-19, 48 h; for CC50: read-out: LC50 (the source's name)
SF-268 = test: Anticancer activity against Homo sapiens (human) SF268 cells after 48 hr by SRB assay; details: SF-268, 48 h; for CC50: read-out: LC50 (the source's name)
HCT-15 [4] = test: Anticancer activity against Homo sapiens (human) HCT15 cells after 48 hr by SRB assay; details: HCT-15, 48 h; for CC50: read-out: LC50 (the source's name)
HCC 2998 [5] = test: Anticancer activity against Homo sapiens (human) HCC2998 cells after 48 hr by SRB assay; details: HCC 2998, 48 h; for CC50: read-out: LC50 (the source's name)
COLO 205 = test: Anticancer activity against Homo sapiens (human) COLO205 cells after 48 hr by SRB assay; details: COLO 205, 48 h; for CC50: read-out: LC50 (the source's name)
NCI-H522 = test: Anticancer activity against Homo sapiens (human) NCI-H522 cells after 48 hr by SRB assay; details: NCI-H522, 48 h; for CC50: read-out: LC50 (the source's name)
NCI-H23 = test: Growth inhibition of Homo sapiens (human) NCI-H23 cells at 10 uM after 48 hr by SRB assay; details: NCI-H23, 48 h, read-out: GI
CCRF-CEM [6] = test: Growth inhibition of Homo sapiens (human) CCRF-CEM cells at 10 uM after 48 hr by SRB assay; details: read-out: GI
MDA-MB-468 = test: Anticancer activity against Homo sapiens (human) MDA-MB-468 cells after 48 hr by SRB assay; details: MDA-MB-468, 48 h; for CC50: read-out: LC50 (the source's name)
T47D = test: Anticancer activity against Homo sapiens (human) T47D cells after 48 hr by SRB assay; details: for CC50: read-out: LC50 (the source's name)
BT-549 = test: Anticancer activity against Homo sapiens (human) BT549 cells after 48 hr by SRB assay; details: BT-549, 48 h; for CC50: read-out: LC50 (the source's name)
MCF7 = test: Anticancer activity against Homo sapiens (human) MCF7 cells after 48 hr by SRB assay; details: MCF7, 48 h; for CC50: read-out: LC50 (the source's name)
PC-3 = test: Anticancer activity against Homo sapiens (human) PC3 cells after 48 hr by SRB assay; details: PC-3, 48 h; for CC50: read-out: LC50 (the source's name)
TK-10 = test: Anticancer activity against Homo sapiens (human) TK10 cells after 48 hr by SRB assay; details: TK-10, 48 h; for CC50: read-out: LC50 (the source's name)
RXF 393 = test: Growth inhibition of Homo sapiens (human) RXF393 cells at 10 uM after 48 hr by SRB assay; details: RXF 393, 48 h, read-out: GI
SK-OV-3 = test: Anticancer activity against Homo sapiens (human) SKOV3 cells after 48 hr by SRB assay; details: SK-OV-3, 48 h
OVCAR-4 = test: Anticancer activity against Homo sapiens (human) OVCAR4 cells after 48 hr by SRB assay; details: OVCAR-4, 48 h; for CC50: read-out: LC50 (the source's name)
OVCAR-3 [7] = test: Anticancer activity against Homo sapiens (human) OVCAR3 cells after 48 hr by SRB assay; details: OVCAR-3, 48 h
IGROV-1 = test: Anticancer activity against Homo sapiens (human) IGROV1 cells after 48 hr by SRB assay; details: IGROV-1, 48 h
OVCAR-3 [8] = test: Growth inhibition of Homo sapiens (human) OVCAR3 cells at 10 uM after 48 hr by SRB assay; details: OVCAR-3, 48 h, read-out: GI
Malme-3M = test: Growth inhibition of Homo sapiens (human) MALME-3M cells at 10 uM after 48 hr by SRB assay; details: read-out: GI
LOX IMVI = test: Growth inhibition of Homo sapiens (human) LOXIMVI cells at 10 uM after 48 hr by SRB assay; details: read-out: GI
SNB-19 [9] = test: Growth inhibition of Homo sapiens (human) SNB19 cells at 10 uM after 48 hr by SRB assay; details: SNB-19, 48 h, read-out: GI
SF-539 = test: Growth inhibition of Homo sapiens (human) SF539 cells at 10 uM after 48 hr by SRB assay; details: SF-539, 48 h, read-out: GI
SF-295 = test: Growth inhibition of Homo sapiens (human) SF295 cells at 10 uM after 48 hr by SRB assay; details: SF-295, 48 h, read-out: GI
HCT-15 [10] = test: Growth inhibition of Homo sapiens (human) HCT15 cells at 10 uM after 48 hr by SRB assay; details: HCT-15, 48 h, read-out: GI

## COc1ccc(OC)c(/C=C/C(=O)N/N=C/c2ccccc2)c1
RPMI-8226
  GI50: 2.99 µM
  TGI: 9.96 µM
  CC50: > 100 µM
HCT-116
  inhibition of growth at 10 µM: 85.8%
HCC 2998 [1]
  inhibition of growth at 10 µM: 33.6%
CCRF-CEM [2]
  GI50: 3.97 µM
  TGI: > 100 µM
  CC50: > 100 µM
Candida albicans
  MFC: 100 µg/mL (≈ 322 µM)
  MIC: 100 µg/mL (≈ 322 µM)
U-251
  GI50: 3.68 µM
  TGI: > 100 µM
  CC50: > 100 µM
SNB-75
  GI50: 4.39 µM
  TGI: 37.3 µM
  CC50: > 100 µM
SNB-19 [3]
  GI50: 4.12 µM
  TGI: > 100 µM
  CC50: > 100 µM
SF-268
  GI50: 7.56 µM
  TGI: > 100 µM
  CC50: > 100 µM
HCT-15 [4]
  GI50: 3.62 µM
  TGI: > 100 µM
  CC50: > 100 µM
HCC 2998 [5]
  GI50: 2.35 µM
  TGI: 21 µM
  CC50: 94.5 µM
COLO 205
  GI50: 4.8 µM
  TGI: 35.1 µM
  CC50: > 100 µM
NCI-H522
  GI50: 1.57 µM
  TGI: 41.7 µM
  CC50: > 100 µM
NCI-H23
  inhibition of growth at 10 µM: 34.9%
CCRF-CEM [6]
  inhibition of growth at 10 µM: 44.8%
MDA-MB-468
  GI50: 1.96 µM
  TGI: 6.47 µM
  CC50: 61.6 µM
T47D
  GI50: 4.86 µM
  TGI: > 100 µM
  CC50: > 100 µM
BT-549
  GI50: 4.05 µM
  TGI: 90.4 µM
  CC50: > 100 µM
MCF7
  GI50: 3.79 µM
  TGI: > 100 µM
  CC50: > 100 µM
PC-3
  GI50: 5.86 µM
  TGI: 52.1 µM
  CC50: > 100 µM
TK-10
  GI50: 16.6 µM
  TGI: > 100 µM
  CC50: > 100 µM
RXF 393
  inhibition of growth at 10 µM: 54.6%
SK-OV-3
  GI50: 12 µM
  LC50: > 100 µM
  TGI: > 100 µM
OVCAR-4
  GI50: 14.3 µM
  TGI: > 100 µM
  CC50: > 100 µM
OVCAR-3 [7]
  GI50: 3.15 µM
  LC50: > 100 µM
  TGI: > 100 µM
IGROV-1
  GI50: 1.51 µM
  LC50 (50% lethal concentration): > 100 µM
  TGI: > 100 µM
OVCAR-3 [8]
  inhibition of growth at 10 µM: 94%
Malme-3M
  inhibition of growth at 10 µM: 41%
LOX IMVI
  inhibition of growth at 10 µM: 57.9%
SNB-19 [9]
  inhibition of growth at 10 µM: 52.1%
SF-539
  inhibition of growth at 10 µM: 48.2%
SF-295
  inhibition of growth at 10 µM: 51.5%
HCT-15 [10]
  inhibition of growth at 10 µM: 58%

## COc1ccc(OC)c(/C=C/C(=O)N/N=C/c2ccc(Cl)cc2)c1
RPMI-8226
  GI50: 0.3 µM
  TGI: 15.7 µM
  CC50: > 100 µM
HCT-116
  inhibition of growth at 10 µM: 94.3%
HCC 2998 [1]
  inhibition of growth at 10 µM: 97.7%
CCRF-CEM [2]
  GI50: 0.228 µM
  TGI: > 100 µM
  CC50: > 100 µM
Candida albicans
  MFC: 50 µg/mL (≈ 145 µM)
  MIC: 25 µg/mL (≈ 72.5 µM)
U-251
  GI50: 0.184 µM
  TGI: 1.49 µM
  CC50: > 100 µM
SNB-75
  GI50: 0.098 µM
  TGI: 1.17 µM
  CC50: > 100 µM
SNB-19 [3]
  GI50: 0.34 µM
  TGI: > 100 µM
  CC50: > 100 µM
SF-268
  GI50: 0.718 µM
  TGI: > 100 µM
  CC50: > 100 µM
HCT-15 [4]
  GI50: 0.0835 µM
  TGI: > 100 µM
  CC50: > 100 µM
HCC 2998 [5]
  GI50: 0.139 µM
  TGI: 1.19 µM
  CC50: 6.52 µM
COLO 205
  GI50: 0.153 µM
  TGI: 0.595 µM
  CC50: 63.9 µM
NCI-H522
  GI50: 0.0292 µM
  TGI: 0.382 µM
  CC50: > 100 µM
NCI-H23
  inhibition of growth at 10 µM: 65.2%
CCRF-CEM [6]
  inhibition of growth at 10 µM: 86.3%
MDA-MB-468
  GI50: 0.142 µM
  TGI: 0.445 µM
  CC50: > 100 µM
T47D
  GI50: 0.16 µM
  TGI: > 100 µM
  CC50: > 100 µM
BT-549
  GI50: 1.17 µM
  TGI: > 100 µM
  CC50: > 100 µM
MCF7
  GI50: 0.0743 µM
  TGI: 32.5 µM
  CC50: > 100 µM
PC-3
  GI50: 0.169 µM
  TGI: > 100 µM
  CC50: > 100 µM
TK-10
  GI50: 0.691 µM
  TGI: > 100 µM
  CC50: > 100 µM
RXF 393
  inhibition of growth at 10 µM: 120%
SK-OV-3
  GI50: 0.149 µM
  LC50: > 100 µM
  TGI: 13.9 µM
OVCAR-4
  GI50: 0.439 µM
  TGI: > 100 µM
  CC50: > 100 µM
OVCAR-3 [7]
  GI50: 0.0335 µM
  LC50: > 100 µM
  TGI: 0.115 µM
IGROV-1
  GI50: 0.187 µM
  LC50 (50% lethal concentration): > 100 µM
  TGI: 62.9 µM
OVCAR-3 [8]
  inhibition of growth at 10 µM: 143%
Malme-3M
  inhibition of growth at 10 µM: 45.9%
LOX IMVI
  inhibition of growth at 10 µM: 63.3%
SNB-19 [9]
  inhibition of growth at 10 µM: 77.4%
SF-539
  inhibition of growth at 10 µM: 143%
SF-295
  inhibition of growth at 10 µM: 68.2%
HCT-15 [10]
  inhibition of growth at 10 µM: 70.6%
